Reference: the NIST ThermoML archive (doi:10.1021/je600575r)
± gives the expanded uncertainty stated by the source. Values belong to the compound of their own block, whether it stands above or below them.

Assay: Solid-liquid equilibrium temperature
Conditions: Crystal, visual observation

SMILES: CCCCCCCCCCCCCCCCCCCC1CCCCC1 [nonadecylcyclohexane]
Solid-liquid equilibrium temperature (100 kPa): 315.7 ± 0.7 K | Solid-liquid equilibrium temperature (19800 kPa): 320.6 ± 0.7 K | Solid-liquid equilibrium temperature (39500 kPa): 324.8 ± 0.7 K | Solid-liquid equilibrium temperature (59800 kPa): 329.2 ± 0.7 K | Solid-liquid equilibrium temperature (78000 kPa): 333.7 ± 0.7 K

SMILES: CCCCCCCCCCC1CCCCC1 [decylcyclohexane]
Solid-liquid equilibrium temperature (100 kPa): 271.3 ± 0.5 K | Solid-liquid equilibrium temperature (20000 kPa): 276 ± 0.5 K | Solid-liquid equilibrium temperature (40100 kPa): 280.5 ± 0.6 K | Solid-liquid equilibrium temperature (59900 kPa): 284.8 ± 0.6 K | Solid-liquid equilibrium temperature (80100 kPa): 289.2 ± 0.6 K | Solid-liquid equilibrium temperature (100100 kPa): 293.9 ± 0.6 K

SMILES: CCCCCCCCCCCC1CCCCC1 [undecane, 1-cyclohexyl-]
Solid-liquid equilibrium temperature (100 kPa): 272.4 ± 0.8 K | Solid-liquid equilibrium temperature (20000 kPa): 276.8 ± 0.8 K | Solid-liquid equilibrium temperature (40000 kPa): 281.3 ± 0.8 K | Solid-liquid equilibrium temperature (60000 kPa): 285.7 ± 0.9 K | Solid-liquid equilibrium temperature (80500 kPa): 289.9 ± 0.9 K | Solid-liquid equilibrium temperature (100000 kPa): 293.9 ± 0.9 K

SMILES: CCCCCCCCCCCCC1CCCCC1 [dodecylcyclohexane]
Solid-liquid equilibrium temperature (100 kPa): 285.8 ± 0.5 K | Solid-liquid equilibrium temperature (19500 kPa): 290.6 ± 0.6 K | Solid-liquid equilibrium temperature (39600 kPa): 295.2 ± 0.6 K | Solid-liquid equilibrium temperature (60900 kPa): 299.9 ± 0.6 K | Solid-liquid equilibrium temperature (79900 kPa): 304.2 ± 0.6 K | Solid-liquid equilibrium temperature (100000 kPa): 308.4 ± 0.6 K

The remaining lines, values ahead:

Solid-liquid equilibrium temperature (100 kPa): 286.9 ± 1.1 K | Solid-liquid equilibrium temperature (20000 kPa): 291.7 ± 1.1 K | Solid-liquid equilibrium temperature (40200 kPa): 296.3 ± 1.1 K | Solid-liquid equilibrium temperature (60000 kPa): 300.7 ± 1.1 K | Solid-liquid equilibrium temperature (80100 kPa): 304.9 ± 1.1 K | Solid-liquid equilibrium temperature (100000 kPa): 309.1 ± 1.1 K
SMILES: CCCCCCCCCCCCCC1CCCCC1 [cyclohexane, tridecyl-]

Solid-liquid equilibrium temperature (100 kPa): 314.3 ± 1.1 K | Solid-liquid equilibrium temperature (20000 kPa): 319.3 ± 1.1 K | Solid-liquid equilibrium temperature (39900 kPa): 324.2 ± 1.1 K | Solid-liquid equilibrium temperature (59600 kPa): 328.8 ± 1.1 K
SMILES: CCCCCCCCCCCCCCCCCCC1CCCCC1 [octadecylcyclohexane]

Solid-liquid equilibrium temperature (100 kPa): 297.2 ± 0.9 K | Solid-liquid equilibrium temperature (20000 kPa): 302.2 ± 0.9 K | Solid-liquid equilibrium temperature (39900 kPa): 307 ± 0.9 K | Solid-liquid equilibrium temperature (60000 kPa): 311.5 ± 0.9 K | Solid-liquid equilibrium temperature (79900 kPa): 316 ± 0.9 K | Solid-liquid equilibrium temperature (100100 kPa): 320.3 ± 1 K
SMILES: CCCCCCCCCCCCCCC1CCCCC1 [tetradecylcyclohexane]

Solid-liquid equilibrium temperature (100 kPa): 298.1 ± 1.1 K | Solid-liquid equilibrium temperature (19300 kPa): 302.6 ± 1.1 K | Solid-liquid equilibrium temperature (40000 kPa): 307.6 ± 1.1 K | Solid-liquid equilibrium temperature (60100 kPa): 312.3 ± 1.1 K | Solid-liquid equilibrium temperature (80300 kPa): 316.8 ± 1.1 K | Solid-liquid equilibrium temperature (100100 kPa): 320.8 ± 1.1 K
SMILES: CCCCCCCCCCCCCCCC1CCCCC1 [cyclohexane, pentadecyl-]
